These results are taken from ChEMBL document CHEMBL5131439, “Triproamide and Pemukainalides, Cyclic Depsipeptides from the Marine Cyanobacterium Symploca hydnoides” (J Nat Prod, 2022).

Starred links: 1 amine or outer side, 2 acyl side, 3 side chain; linkers in the order of their positions; H or OH if unused. Non-standard residues stand in square brackets, D forms with d. Residues, ends and D or L forms follow the SMILES beside them. X1 = C[C@H](Cc1ccccc1)[C@H](N[*:1])C(=O)[*:2]; X2 = CC(C)[C@@H](N[*:1])[C@@H](C)C(=O)[*:2]; dNMeV = CN[C@@H](C(=O)O)C(C)C; dHiv = CC(C)[C@@H](O)C(=O)O; Lac = C[C@H](O)C(=O)O

The subject of this experiment is MOLT-4. Nature of the experiment: Cytotoxicity against human MOLT-4 cells assessed as reduction in cell viability incubated for 24 hrs by MTT assay. It counts as functional, cell-based. Particulars: MOLT-4, 24 h.
What is called IC50 is the midpoint of a concentration-inhibition curve. With `CCCCC[C@@H]1OC(=O)[C@H](Cc2ccccc2)NC(=O)[C@H](C(C)C)NC(=O)[C@@H]2CCCN2C(=O)[C@@H]2CCCN2C(=O)[C@H](C)OC(=O)[C@@H](C(C)C)N(C)C(=O)[C@H](C(C)C)NC(=O)C1(C)C`, the IC50 was 37 µM. As for `CC(C)[C@H]1NC(=O)[C@@H]2CCCN2C(=O)[C@H]([C@H](C)Cc2ccccc2)NC(=O)[C@@H]2CCCN2C(=O)[C@@H](C(C)C)N(C)C(=O)[C@@H](C(C)C)OC(=O)[C@@H]2CCCN2C(=O)[C@H](C)OC(=O)[C@@H]1C` (cyclo([Lac]P[dHiv][dNMeV]P[X1]P[X2])), the IC50 was 2.5 µM.

With `C=CCCC[C@@H]1OC(=O)[C@H](Cc2ccccc2)NC(=O)[C@H](C(C)C)NC(=O)[C@@H]2CCCN2C(=O)[C@@H]2CCCN2C(=O)[C@H](C)OC(=O)[C@@H](C(C)C)N(C)C(=O)[C@H](C(C)C)NC(=O)C1(C)C`, the IC50 was 5.6 µM. In the case of `CC(C)[C@@H]1OC(=O)[C@H](C)[C@@H](C(C)C)NC(=O)[C@@H]2CCCN2C(=O)[C@H]([C@H](C)Cc2ccccc2)NC(=O)[C@@H]2CCCN2C(=O)[C@@H](C(C)C)OC(=O)[C@@H]2CCCN2C(=O)[C@@H](C(C)C)N(C)C1=O`, the IC50 amounted to 23 µM. `C#CCCC[C@@H]1OC(=O)[C@H](Cc2ccccc2)NC(=O)[C@H](C(C)C)NC(=O)[C@@H]2CCCN2C(=O)[C@@H]2CCCN2C(=O)[C@H](C)OC(=O)[C@@H](C(C)C)N(C)C(=O)[C@H](C(C)C)NC(=O)C1(C)C`: the IC50 stood at 5.9 µM.
